Reference: PMC8792425 (Redox Biology, 2022)

Molecular target: T1, citrate synthase (CS) (Homo sapiens, UniProt O75390)
T1 sequence (O75390 28-466): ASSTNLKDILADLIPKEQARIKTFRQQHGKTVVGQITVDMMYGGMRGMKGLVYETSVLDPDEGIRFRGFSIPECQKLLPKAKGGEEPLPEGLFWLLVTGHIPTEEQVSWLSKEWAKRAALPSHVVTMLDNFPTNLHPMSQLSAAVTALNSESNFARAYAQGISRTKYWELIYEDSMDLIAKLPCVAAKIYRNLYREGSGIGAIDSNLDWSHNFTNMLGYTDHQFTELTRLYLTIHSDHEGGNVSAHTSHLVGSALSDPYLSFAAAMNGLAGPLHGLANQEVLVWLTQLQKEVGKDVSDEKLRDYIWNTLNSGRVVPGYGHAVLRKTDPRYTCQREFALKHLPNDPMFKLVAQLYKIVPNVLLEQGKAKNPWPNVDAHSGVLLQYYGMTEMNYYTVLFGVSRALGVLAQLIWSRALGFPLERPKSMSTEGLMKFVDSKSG
Experiment: DTNB-CoA absorbance at […] nm
Format: biochemical

CC(=O)SCCNC(=O)CCNC(=O)[C@H](O)C(C)(C)COP(=O)(O)OP(=O)(O)OC[C@H]1O[C@@H](n2cnc3c(N)ncnc32)[C@H](O)[C@@H]1OP(=O)(O)O [acetyl CoA]
DTNB-CoA absorbance at 412 nm (with oxaloacetate and DTNB): oxaloacetate, acetyl CoA, and DTNB were incubated with protein lysates

O=C(O)CC(=O)C(=O)O [oxaloacetate]
DTNB-CoA absorbance at 412 nm (with acetyl CoA and DTNB): oxaloacetate, acetyl CoA, and DTNB were incubated with protein lysates
